This note sets out measurements from patent US11208559B2, “Modified indigo compounds and methods of dyeing a substrate using a modified indigo compound” (VF Jeanswear LP, priority 2016, dated 2021).

Holding throughout (assay type): physicochemical
The nature of series [1]: Stability of Compound 4 in water, UV-Vis spectra. Conditions: 3 wt. % aqueous solution, room temperature, up to 2 days. As for the experimental part:
The stability of compound 4 was determined. An aqueous solution of 3 wt. % of Compound 4 was prepared at stored at room temperature for 2 days. The UV-Vis spectra for each solution were obtained prior to storage, 3 hours, 1 day, and 2 days. The solution was then diluted by a factor of 300 and the UV-Vis spectrum of FIG. 15 obtained.

Series [2] is described as follows: Solubility studies in water (centrifugation, weighing of undissolved solids). Particulars: for Highest Solubility Measured (wt. %): in water, corrected for insoluble solids, true maximum solubility not determined; for average percent solids removed: undissolved solids removed during centrifugation of aqueous solutions. As for the experimental part: The solutions were prepared by adding a known amount of dye to a known amount of water and agitating the solution. Separately, each solution of known concentration was centrifuged for 30 minutes to separate out any undissolved solids. The supernatant was decanted and the remaining undissolved solids were dried at 50° C. and later weighed to determine wt. % of soluble portion.
The actual concentration was determined by centrifuging the dye solutions extensively to remove any undissolved solids. The undissolved solids were then isolated, dried, and weighed.
Note that in all instances, a true maximum solubility in water has not been determined due to the very high solubility of the compounds in water. For all compounds, the maximum solubility was corrected for the amount of insoluble solids that were isolated during centrifugation.

A short description of series [3]: Hydrolysis to indigo under hydrolyzing conditions.
Series [4] can be described thus: Dilution of stock solution into distilled water, comparison with leuco-indigo. Particulars: for time to turn blue / convert back to indigo after dilution: 1 mL stock solution in 20 mL distilled water, no excess reducing agent. As for the experimental part: The stability and visual observations comparing what occurs when an aqueous stock solution of leuco-indigo and an aqueous solution Compound 8 were obtained. The leuco-indigo stock solution was prepared using 0.2 wt. % indigo powder, 0.5 wt. % NaOH, and 0.5 wt. % sodium hydrosulfite, the solution was heated to 50-60° C. for 30 minutes, and the solution was then allowed to cool to room temperature. An aqueous solution containing 3 wt. % of Compound 8 was prepared. 1 mL of each solution was then added to 20 mL of distilled water and physical observations were made. See, Table 3.

Series [5] can be described thus: Insoluble solids filtered from stored dye solution with sodium sulfate (Test 4). Particulars: 2 wt. % aqueous solution, 0.45 micron filter. As for the experimental part:
Aqueous solutions of 2 wt. % of Compound 8 were prepared with varying concentrations of sodium sulfate and then filtered through a 0.45 micron PVDF syringe filter after one day of room temperature storage. The filters were then dried at 120° C., cooled to room temperature, and weighed to quantify the amount of insoluble solids that had precipitated out of solution during storage.
In a control experiment, the weight change (−0.35%) was determined for a syringe filter that was flushed with 10 mL distilled water and then dried at 120° C.

A short description of series [6]: Air stability of aqueous solution, UV-Vis spectra. The procedure:
The air stability of Compound 8 was measured by diluting of the compound in water to provide a 0.01 wt. % solution. […] The solid line represents the stability of the Compound 8 aqueous solution under atmospheric conditions. The dashed line represents the stability of the Compound 8 aqueous solution after treatment with 15 minutes of nitrogen purging of the solution, followed by storage for 1 day in a vial equipped with a rubber septum. See, FIG. 10. The UV-Vis spectra of the solutions were obtained.

Series [7] is described as follows: Storage stability of aqueous dye solution at room temperature, UV-Vis spectra. Particulars: for compound converted to indigo: room temperature, 5 day period. The procedure:
All UV-Vis spectra were obtained using a Varian Cary 6000i UV-Vis spectrophotometer.
The stability of Compound 8 was measured by diluting samples of the compound in water to provide 0.01 and 3% wt. % solutions. The solutions were then stored at room temperature for 5 days. The UV-Vis spectra of the solution after 1, 2, and 5 days were obtained. FIGS. 3 and 11A are the UV-Vis spectra which show the robustness of the dye compound after at least 2 days of storage at room temperature at both concentrations.
The longer term stability of Compound 8 was measured by diluting a sample of the compound in water to provide a 0.01 wt. % solution containing 0.1M NaCl (aq). The solution was then stored at room temperature for 5 days. The UV-Vis spectra of the solution were obtained daily over the 5 days.
The stability of Compound 8 was measured by preparing a 0.01 wt. % aqueous solution of compound 8 in water. The solution was then stored at room temperature for 2 days. The UV-Vis spectra of the solution after 1 and 2 days were obtained. FIG. 11B are the UV-Vis spectra which show the robustness of the dye compound after at least 2 days of storage at room temperature at both concentrations.

A short description of series [8]: Relative kinetics of degradation (hydrolysis) monitored by UV-Vis spectrophotometry. Conditions: 0.01 wt. % with 0.1M NaCl aqueous versus 0.01 wt. % without salt, room temperature. As for the experimental part:
In this example, the relative kinetics of degradation for two conditions for Compound 8 were measured. One solution contained 0.01 wt. % of Compound 8 and 0.1M NaCl aqueous and the other solution contained 0.01 wt. % of Compound 8. Both solutions were stored at room temperature and the hydrolysis monitored using UV-Vis spectrophotometry. See, FIG. 13.

Series [9] is described as follows: Atmospheric steam treatment of dyed cotton skein, conversion to indigo. Conditions: steam under atmospheric conditions for 30 minutes. As for the experimental part:
Cotton skeins were pretreated with 1 M NaOH (aq), dyed with a 3 wt. % aqueous solution of Compound 8, hydrolyzed using 1 M NaOH (aq), and then rinsed with water. One skein was dried at 50° C. and remains purple in color. See, the top skein in FIG. 21. The other skein was dried at 50° C. and then exposed to steam under atmospheric conditions for 30 minutes, resulting in the attainment of a blue hue. See, the botton skein in FIG. 21.

Series [10] in a line: Heat treatment of dyed cotton fabric, conversion to indigo. Particulars: 4 minutes. As for the experimental part:
Prepared for dye (PFD) 3×1 twill cotton fabric dyed with Compound 8 prepared by dipping in an aqueous solution containing 3 wt. % of Compound 8, padding, and drying at 50° C. The samples were then placed separately into a lab-scale tenter frame for heat treatment. See, FIG. 20 showing the dyed fabric exposed to 100° C. (left), 150° C. (middle), and 180° C. (right).

Setting [11] is: 1 mL stock solution added to 20 mL distilled water.

Turning to `C[n+]1cccc(C(=O)N2/C(=C3\C(=O)c4ccccc4N3C(=O)c3ccc[n+](C)c3)C(=O)c3ccccc32)c1` [Compound 4], the “stability in water compared to Compound 8” value in series [1] is “relative instability”.
With `O=C1/C(=C2/C(=O)c3ccccc3N2C(=O)c2ccncc2)N(C(=O)c2ccncc2)c2ccccc21` [Compound 37], in [2], the “Highest Solubility Measured (wt. %)” value is 1.6 wt. % and the “average percent solids removed” value is “about 26%”. For the same molecule, the hydrolysis to indigo result in series [3] was “hydrolyzes to indigo”.
Take `Oc1c(-c2[nH]c3ccccc3c2O)[nH]c2ccccc12` [Leuco-indigo, leuco-indigo]: the “Observation on dilution (color)” value in [4] (setting [11]) is given as “blue-green solution immediately”. Also, the “time to turn blue / convert back to indigo after dilution” value is “solution turned blue under 10 seconds” in series [4] and “less than 10 seconds” in series [4] (listed as leuco-indigo).
In the case of `O=C1/C(=C2/C(=O)c3ccccc3N2C(=O)c2ccncc2)N(C(=O)c2ccncc2)c2ccccc21` [Compound 35], in series [2], the “Highest Solubility Measured (wt. %)” value is reported as 1.7 wt. % and the “average percent solids removed” value is “about 26%”.
As for `C[n+]1ccc(C(=O)N2/C(=C3\C(=O)c4ccccc4N3C(=O)c3cc[n+](C)cc3)C(=O)c3ccccc32)cc1` [Compound 8], the “Highest Solubility Measured (wt. %)” value in series [2] is recorded as 40 wt. %. Further, in [2], the “average percent solids removed” value was “about 2%”. Moreover, the “Fraction of dye compound removed during filtration (%)” value in series [5] (0.1M Na2SO4, one day at room temperature) is listed as 2.85%; in series [5] (0.5M Na2SO4, one day at room temperature), −0.4%; in series [5] (1M Na2SO4, one day at room temperature), 0.1%. The “UV-Vis spectra after one day, stored under nitrogen versus atmospheric conditions” value in series [6] (0.01 wt. % solution in water, 1 day at 8° C.) is “identical”. In addition, the “air stability in solution” value in series [6] (aqueous solution, storage at room temperature for 2 days) is on record as “air stable”. In addition, the “Observation on dilution (color)” value in series [4] (setting [11]) is “Dark purple solutions became lighter”. Also, the “UV-Vis spectra of diluted solutions” value in series [4] (setting [11]) is reported as “superimposable - consistent with no”. Besides, the “robustness of the dye compound on storage at room temperature” value in [7] (0.01 and 3 wt. % solutions in water, FIGS. 3 and 11A) is “at least 2 days”; in series [7] (Example 27, 0.01 wt. % aqueous solution, FIG. 11B), “at least 2 days”. Besides, the “compound converted to indigo” value in [7] (0.01 wt. % solution containing 0.1M NaCl (aq)) came out at 9%; in [7] (0.01 wt. % solution in water), 41%. The “hydrolysis rate with salt relative to without salt (factor slower)” value in [8] is given as “six”. Moreover, the “conversion to indigo by steam” value in series [9] is recorded as “conversion to indigo”. The “conversion to indigo by heat” value in [10] (100° C.) is listed as “no conversion”; in [10] (150° C.), “slower conversion”; in series [10] (180° C.), “relatively rapid conversion”.
